Earlier results in patent publication EP4563141A1, “SELF-EMULSIFYING FORMULATION FOR TOPICAL USE” (Guidotti, Elena, priority 2023, dated 2025).
Where two headings read alike, the source gives them in different places.

Columns and labels:
[1] = tested on: S. aureus biofilm formation; settings: 0.01% (v/v); trans-nerolidol at a similar concentration
[2] = target: CB1 (Homo sapiens, UniProt P21554)
[3] = target: CB2 (Homo sapiens, UniProt P34972)
[4] = not given; remark: listed apart in the source
[5] = compared with animals in the control group
[6] = several drugs, particularly 5-fluorouracil, with the use of nerolidol
[7] = human; 4% nerolidol (unspecified isomer); single occlusive application for 48 h
[8] = human; 4% (unspecified isomer); maximization tests or repeated insult tests
[9] = not given; remark: listed apart in the source

Chain of CB2 (P34972 whole entry, species assumed): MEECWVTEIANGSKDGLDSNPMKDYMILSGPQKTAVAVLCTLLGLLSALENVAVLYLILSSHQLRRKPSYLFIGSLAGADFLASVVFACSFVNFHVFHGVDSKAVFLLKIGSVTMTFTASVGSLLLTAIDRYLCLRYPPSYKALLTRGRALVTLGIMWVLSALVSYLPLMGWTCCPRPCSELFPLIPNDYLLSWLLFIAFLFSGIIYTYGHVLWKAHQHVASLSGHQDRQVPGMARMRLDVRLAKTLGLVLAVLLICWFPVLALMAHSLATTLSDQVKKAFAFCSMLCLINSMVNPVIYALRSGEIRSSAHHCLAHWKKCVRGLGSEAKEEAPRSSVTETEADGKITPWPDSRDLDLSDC
Chain of CB1 (P21554 whole entry, species assumed): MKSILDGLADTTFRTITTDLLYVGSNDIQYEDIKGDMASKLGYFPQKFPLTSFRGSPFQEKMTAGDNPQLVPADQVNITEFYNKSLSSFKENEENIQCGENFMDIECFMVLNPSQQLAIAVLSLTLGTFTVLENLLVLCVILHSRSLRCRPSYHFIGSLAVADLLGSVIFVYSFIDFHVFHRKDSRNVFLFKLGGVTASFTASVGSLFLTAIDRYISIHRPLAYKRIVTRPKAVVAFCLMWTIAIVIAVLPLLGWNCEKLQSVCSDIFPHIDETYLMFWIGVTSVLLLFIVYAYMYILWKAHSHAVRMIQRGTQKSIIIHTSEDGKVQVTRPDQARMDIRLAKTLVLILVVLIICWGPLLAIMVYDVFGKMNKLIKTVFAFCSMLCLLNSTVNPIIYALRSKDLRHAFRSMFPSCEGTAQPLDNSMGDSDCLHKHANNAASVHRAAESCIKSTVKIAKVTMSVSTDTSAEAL

C=CC(C)(O)CC/C=C(/C)CCC=C(C)C (stereo not drawn) [Cis-nerolidol]
inhibit S. aureus biofilm formation [1]: more than 80%

C=CCc1ccc(O)c(-c2ccc(O)c(CC=C)c2)c1 [honokiol]
mode of activity at CB1 [2]: full agonistic activity | LogP: over 4 | mode of activity at CB2 [3]: antagonistic properties

C=CCc1ccc(O)c(-c2cc(CC=C)ccc2O)c1 [magnolol]
LogP: over 4 | mode of activity at CB2 [3]: partial CBD receptor agonist

C=CC(C)(O)CCC=C(C)CCC=C(C)C (centres unmarked) [nerolidol, 3,7,11-trimethyl-1,6,10-Dodecatrien-3-ol]
skin irritation ([4]; 5% in diethyl phthalate, eliminated after 48 h): very mild edema in one animal | skin irritation ([4]; rabbits, undiluted (unspecified isomer), intact and abraded skin, after 48 h): well-defined erythema or mild edema | reduction in ulcerative lesion index (ULI) ([5]; 50 mg/k): 41.22 | reduction in ulcerative lesion index (ULI) ([5]; 250 mg/k): 51.31 | reduction in ulcerative lesion index (ULI) ([5]; 500 mg/k): 56.57 | increase in diffusion rate for transdermal penetration [6]: more than 20 fold | skin irritation [7]: did not cause skin irritation | skin sensitization [8]: did not cause positive reactions | cross-sensitization ([9]; guinea pigs induced with farnesyl acetate): no cross-sensitization was observed | skin sensitization ([9]; guinea pigs, two adjuvant tests, concentrations of 3% and 10%): weak reactions

C=CC(C)(O)CC/C=C(\C)CCC=C(C)C (stereo not drawn) [trans-nerolidol]
inhibit S. aureus biofilm formation [1]: 45%
